Data as given in paper PMC3608651, “A Broad Profile of Co-Dominant Epitopes Shapes the Peripheral Mycobacterium tuberculosis Specific CD8+ T-Cell Immune Response in South African Patients with Active Tuberculosis” (PLoS ONE, 2013).
Where two headings read alike, the source gives them in different places.

Key:
Format in all cases: binding
[1] = target: T1, HLA-A*68:01 (Homo sapiens, UniProt P04439, A269V/D185E/E176V/E277Q/E87N/F33Y/G231S/I121M/I166T/I218V/L180W/L300P/L318F/N151K/P208A/P217A/Q86R/R169H/T345S); details: duplicated experiments, positive binder >40%
[2] = target: T2, HLA-A*02:01 (Homo sapiens, UniProt P04439, D140Y/D185E/D98H/E176V/E277Q/G131W/G231S/I119V/I121R/I166T/I218V/L300P/L318F/N151K/N90K/P208A/P217A/Q86G/Q94H/R138H/R169H/T345S); details: plate-bound monomer 0.5 µg/ml, duplicated experiments, positive binder >40%
[3] = target: T3, HLA-A*24:02 (Homo sapiens, UniProt P04439, D101N/D140Y/D185E/E176V/E190D/F33S/G103R/G107R/I119L/I121M/I306V/K335N/L105A/L180Q/L300P/N151K/N90K/Q86E/Q94H/R106L/R138H/R89G/T104I/T345S/V100E/W191G/Y123F)
[4] = target: T4, HLA-A*30:02 (Homo sapiens, UniProt P04439, D101N/D140H/D185E/E176R/F33S/G80R/H175R/K168Q/Q94H/R138E/R41S/V100E); details: duplicated experiments, positive binder >40%
[5] = target: HLA-A*30:01 (Homo sapiens, UniProt P04439, D140H/D185E/E176W/F33S/G80R/H175R/K168Q/R138E/R41S); details: duplicated experiments, positive binder >40%
[6] = target: T5, HLA-B*58:01 (Homo sapiens, UniProt P01889, A329T/C349S/D201E/D98Y/E176V/E187L/E204Q/E69T/G107R/I218V/I90N/K202T/L105A/L119I/N104I/N87E/Q89R/Q94S/R106L/R155S/R180L/R86G/S101N/S121R/S35A/S48A/T118I/V127L/V306I/V36M/Y140S/Y91M); details: duplicated experiments, positive binder >40%
[7] = target: HLA-C*07:01 (Homo sapiens, UniProt P10321, K90N/S123Y); details: duplicated experiments, positive binder >40%
[8] = target: HLA-B*07:02 (Homo sapiens, UniProt P01889); details: percent relative the binding of positive control peptide […]; duplicated experiments; positive binder >40%
[9] = target: T3, HLA-A*24:02; details: duplicated experiments, positive binder >40%
[10] = target: T3, HLA-A*24:02; details: time points 0-8 h
[11] = target: T2, HLA-A*02:01; details: time points 0-8 h; time when 50% of peptide has dissociated
[12] = target: T4, HLA-A*30:02; details: time points 0-8 h
[13] = target: T2, HLA-A*02:01; details: peptide quantity for 50% binding saturation
[14] = target: T4, HLA-A*30:02
[15] = target: T1, HLA-A*68:01
[16] = target: T5, HLA-B*58:01; details: time points 0-8 h
[17] = target: T1, HLA-A*68:01; details: time points 0-8 h
[18] = target: T5, HLA-B*58:01
[19] = percent relative the binding of positive control peptide […]
[20] = percent relative the binding of positive control peptide KTGGPIYKR
[21] = percent relative the binding of positive control peptide FLPSDFFPSV
[22] = percent relative the binding of positive control peptide KIQNFRVYY
[23] = percent relative the binding of positive control peptide KTKDIVNGL
[24] = percent relative the binding of positive control peptide IAMESIVIW
[25] = percent relative the binding of positive control peptide KYFDEHYEY
[26] = percent relative the binding of positive control peptide RYLKDQQLL
[27] = peptide titrated 10−4 to 10−9 M

Substance	Bind A*02:01 [2, 19] [%]	Aff A*24:02 (ED50) [3]	Bind A*30:02 [4, 19] [%]	Bind B*07:02 [8] [%]	Bind A*24:02 [9, 19] [%]	O-rate A*24:02 (t1/2) [10] [min]	O-rate A*02:01 (t1/2) [11] [min]	Bind A*68:01 [1, 20] [%]	Bind A*02:01 [2, 21] [%]	Bind A*30:02 [4, 22] [%]	Bind A*30:01 [5, 23] [%]	Bind B*58:01 [6, 24] [%]	Bind C*07:01 [7, 25] [%]	Bind A*24:02 [9, 26] [%]	O-rate A*30:02 (t1/2) [12] [min]	Aff A*02:01 (ED50) [13, 27] [M]	other results
GWDINTPAF	0	1E -07 M	0	22	146	66											Bind A*68:01 [1, 19]: 5%; Bind A*30:01 [5, 19]: 11%; Bind B*58:01 [6, 19]: 0%; Bind C*07:01 [7, 19]: 10%
MYNYPTMLD [Rv0288_5–13m3]		2e-08 M	0		76	30											
TYKW ETFLT	36	2e-06 M	13	3	118	30											Bind A*68:01 [1, 19]: 4%; Bind A*30:01 [5, 19]: 0%; Bind B*58:01 [6, 19]: 0%; Bind C*07:01 [7, 19]: 0%
VQQKWDATA [Rv3875_54–62]				9			72	0	54	76	21	12	9	0	96	5e-09	Aff A*30:02 (ED50) [14, 27]: 0.06 µM
AMLDHAGDM [Rv0288_10–18m2]	47		100		13		66								24		Aff A*02:01 (ED50) ([13]; […]): 8e-08 M; Aff A*30:02 (ED50) [14]: 0.7 µM
MYNYPTMLG [Rv0288_5–13m1]		2e-07 M	23		47	30											
HSMSSTHEA [Rv0288_70–78m1]	45		39				18								54		Bind A*68:01 [1, 19]: 0%; Aff A*02:01 (ED50) ([13]; […]): 0.001 M; Aff A*30:02 (ED50) [14]: 0.006 µM
GT HSWEYWG	43		79	3	2		18								132		Bind A*68:01 [1, 19]: 71%; Aff A*68:01 (ED50) [15]: 1E -05 M; O-rate B*58:01 (t1/2) [16]: 174 min; Bind A*30:01 [5, 19]: 0%; O-rate A*68:01 (t1/2) [17]: 12 min; Bind B*58:01 [6, 19]: 58%; Bind C*07:01 [7, 19]: 25%; Aff A*02:01 (ED50) ([13]; […]): 2E -06 M; Aff B*58:01 (ED50) [18]: 0.3 µM; Aff A*30:02 (ED50) [14]: 30 µM
SQIMYNYPT [Rv0288_2–10m1]	47		31				42								30		Aff A*02:01 (ED50) ([13]; […]): 1e-06 M; Aff A*30:02 (ED50) [14]: 4 µM
IQGNVTSIH [Rv3875_18–26]				3			12	17	51	36	13	7	5	0		1e-06	
AMASTEGNV [Rv3875_82–90]				11			60	0	87	102	0	0	3	0	150	3e-08	Aff A*30:02 (ED50) [14, 27]: 0.007 µM
NLARTISEA [Rv3875_71–79]				10			138	9	72	17	15	21	12	11		4e-08	
GYAGTLQNL [Rv0288_20–28m1]		1e-07 M			68	18											
LLDEGKQSL [Rv3875_28–36]				3			294	4	61	0	20	2	19	0		7e-07	
ALQNLARTI [Rv3875_68–76]				8			102	0	73	17	0	0	0	0		3e-08	
